Laboratory results published in patent US12503484B2, “Androstane derivatives with activity as pure or predominantly pure stimulators of SERCA2a for the treatment of heart failure” (Seismic Pharmaceuticals, priority 2019, dated 2025).
Entries after “also recorded” stand apart in the source; their conditions may differ. Where a name gives a salt, the structure may show the parent alone. Read-outs that look alike come from different tables or passages of the source.

What was measured:
[1] = tested on: guinea-pig ventricular myocytes; test: Action potential measurements in guinea-pig ventricular myocytes; format: cell-based; details: 1 μM
Experimental: (§1) The compounds were characterized for their effect on (i) SR Ca^2+ uptake function and (ii) action potential (AP) in myocytes freshly dissociated from rat and guinea-pig ventricles, respectively, by retrograde coronary perfusion with enzymatic solution (Rocchetti M et al., J Pharmacol Exper Therap 2005, 313(1):207-215).
Cvie216 and Cvie214 effects on action potential parameters were evaluated at the concentration of 1 μM modulating SERCA2a in guinea-pig myocytes. The action potential (AP) contour provides a first-line estimate of the integrated function of membrane ion channels, and its changes may disclose ancillary actions—potentially resulting in untoward effects of the compound. To increase sensitivity of the AP contour as a reporter, effects on the rate-dependency of AP parameters were also tested, thus providing a multiparametric (more stringent) approach. AP were recorded in guinea-pig ventricular myocytes because the AP contour reproduces the human AP. […] Statistical analysis was performed by a “group comparison” model.
APs were recorded in normal Tyrode's solution at 36.5° C. in guinea-pig ventricular myocytes. The following parameters were measured at 4 stimulation rates (0.5-1-2-4 Hz): diastolic membrane potential (Ediast), maximum depolarization velocity (dV/dtmax), action potential duration (APD at 90% of repolarization). Short term APD variability (STV) during steady-state pacing, an index of repolarization stability, was measured as the sum of absolute orthogonal deviations from the identity line in the APDnfAPDn+1 plot (Poincare plot) (Altomare C et al., Circulation A&E 2015, 8:1265-1275).

STZ diabetic rats = test: Haemodynamics in streptozotocin diabetic rats (echocardiography); format: in vivo, rat
Experimental: CVie214 and CVie216 were tested in a diabetic rat model. Briefly, rats were injected with streptozotocin (STZ). After 7-9 weeks from STZ injection, rats were submitted to transthoracic echocardiographic and Doppler evaluation performed under urethane anesthesia. Two-dimensionally guided M-mode recordings were used to obtain short-axis measurements of left ventricular end-diastolic diameter (LVEDD), left ventricular end-systolic diameter (LVESD), posterior (PW) and septal (SW) diastolic wall thickness according to the American Society of Echocardiography guidelines (Lang R M et al., Eur J Echocardiography 2006, 7:79-108). Fractional shortening was calculated as FS=(LVEDD−LVESD)/LVEDD. Relative wall thickness was calculated as PWTd+IVSTd/LVEDD. Mitral inflow was measured by pulsed Doppler at the tips of mitral leaflets from an apical 4-chamber view to obtain early and late filling velocities (E, A) and deceleration time of early filling velocity (DT). The deceleration slope was calculated as E/DT ratio. The mitral deceleration index was calculated as DT/E ratio. Tissue Doppler Imaging (TDI) was evaluated from the apical 4-chamber view to record septal mitral annular movements, i.e., peak myocardial systolic (s′) and early and late diastolic velocity (e′ and a′).
After baseline hemodynamic measurements were taken, the rats were administered Digoxin, CVie214, CVie216 and compared to control. Digoxin, used as reference drug, was intravenously infused at 0.11 mg/kg/min for 15 min and echocardiographic parameters measured after 1 h. CVie214-salt and CVie216-salt were intravenously infused in STZ diabetic rats at 0.2 mg/kg/min and echocardiographic parameters were measured after 15 min and 30 min.
Tables 4-6 show the haemodynamic parameters in STZ diabetic rats for Digoxin, CVie214-salt, and Cvie216-salt.

[2] = biological target: dog renal Na^+/K^+ ATPase (Canis lupus familiaris (Dog) (Canis familiaris), UniProt P50997); test: biochemical; details: IC50 inhibition of dog renal Na+/K+ ATPase, purified dog kidney enzyme;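 note: enzyme preincubated with inhibitor 10 min at 37 °C, then K^+ and ^32P-ATP added for 15 min, released ^32P counted, activity relative to untreated control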
Source text: Inhibition of Dog Renal Na^+/K^+ ATPase Activity
The compounds were thus tested for their inhibitory effect on the canine renal Na^+/K^+ ATPase enzyme.
Kidneys were excised from 1-3 year-old male beagle dogs (WuXi AppTec, Suzhou Co., Ltd. 1318 Wuzhong Ave., Wuzhong District Suzhou, 215104 P.R. China) under pentobarbital anesthesia (Import Authorization from Italian Health Ministry 0009171-09/04/2015-DGSAF-COD_UO-P, 2015). Kidneys were sliced and the outer medulla was dissected and suspended (1 g/10 ml) in a sucrose-histidine solution containing 250 mM sucrose, 30 mM histidine, and 5 mM EDTA, pH 7.2. The tissue was homogenized by using an Ultra Turrax homogenizer. The sample was centrifuged at 6,000 g for 15 min. Next, the supernatant was decanted and centrifuged at 48,000 g for 30 min. The pellet was suspended in the sucrose-histidine buffer and incubated for 20 min with a sodium-dodecyl-sulphate (SDS) solution dissolved in a gradient buffer containing 25 mM imidazole and 1 mM EDTA, pH 7.5. The sample was layered on the top of a sucrose discontinuous gradient (10, 15, and 29.4%) and centrifuged at 60,000 g for 115 min. The pellet was suspended in the gradient buffer.
Increasing concentrations of the standard ouabain, or tested compound, were incubated with 0.3 μg of purified dog kidney enzyme for 10 min at 37° C. in 120 μl final volume of a medium containing 140 mM NaCl, 3 mM MgCl2, 50 mM Hepes-Tris, 3 mM ATP, pH 7.5. Then, 10 μl of a solution containing 10 mM KCl and 20 nCi of ^32P-ATP (3-10 Ci/mmol, Perkin Elmer) were added. The reaction was allowed to continue for 15 min at 37° C. and then stopped by acidification with 20% v/v ice-cold perchloric acid. ^32P was separated by centrifugation with activated Charcoal (Norit A, Serva) and the radioactivity was counted. The inhibitory activity was expressed as percent of the control samples carried out in the absence of ouabain, or tested compound.

SERCA2a = SERCA2a (Cavia porcellus, UniProt A0A286XD73); test: SERCA2a ATPase activity in heart-derived SR microsomes from normal guinea-pig; format: biochemical
SERCA2a, sequence (A0A286XD73 1-997): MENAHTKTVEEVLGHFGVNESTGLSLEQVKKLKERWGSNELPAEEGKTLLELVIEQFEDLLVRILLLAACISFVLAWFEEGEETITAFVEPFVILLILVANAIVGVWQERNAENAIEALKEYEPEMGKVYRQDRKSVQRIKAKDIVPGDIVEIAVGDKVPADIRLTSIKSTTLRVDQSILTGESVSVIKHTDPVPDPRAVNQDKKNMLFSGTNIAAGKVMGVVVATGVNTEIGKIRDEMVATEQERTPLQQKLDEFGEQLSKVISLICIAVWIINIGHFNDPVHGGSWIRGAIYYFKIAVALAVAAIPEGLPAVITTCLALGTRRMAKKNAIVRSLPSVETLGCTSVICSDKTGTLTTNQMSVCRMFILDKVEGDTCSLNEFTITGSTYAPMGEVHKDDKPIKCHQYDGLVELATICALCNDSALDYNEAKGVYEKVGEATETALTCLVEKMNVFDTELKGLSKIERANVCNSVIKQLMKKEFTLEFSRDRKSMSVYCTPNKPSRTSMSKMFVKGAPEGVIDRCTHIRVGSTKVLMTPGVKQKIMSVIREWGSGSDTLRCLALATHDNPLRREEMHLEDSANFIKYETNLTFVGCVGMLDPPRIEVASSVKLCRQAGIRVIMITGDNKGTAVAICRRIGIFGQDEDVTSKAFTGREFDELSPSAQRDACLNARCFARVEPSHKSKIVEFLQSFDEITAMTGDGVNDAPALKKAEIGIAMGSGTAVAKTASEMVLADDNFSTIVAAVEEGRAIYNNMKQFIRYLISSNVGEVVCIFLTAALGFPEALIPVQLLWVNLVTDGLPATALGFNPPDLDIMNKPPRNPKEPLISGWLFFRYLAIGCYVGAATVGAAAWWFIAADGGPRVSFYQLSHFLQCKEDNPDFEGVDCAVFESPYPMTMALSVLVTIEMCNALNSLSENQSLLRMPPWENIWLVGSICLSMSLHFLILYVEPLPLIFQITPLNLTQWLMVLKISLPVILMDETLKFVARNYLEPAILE
Experimental: SERCA2a ATPase Activity in Heart-Derived SR Microsomes from Normal Quinea-Pig
SERCA2a activity was measured in vitro as ^32P-ATP hydrolysis at different Ca^2+ concentrations (100-4000 nM) in the absence and presence of the tested compounds, as described (Micheletti R. et al., Am J Card 2007, 99:24A-32A). Increasing concentrations of each compound (ranging from 1 to 200 nM) were pre-incubated with 2 μg of SERCA2a enriched microsomes for 5 min at 4° C. in 80 μl of a solution containing 100 mM KCl, 5 mM MgCl2, 1 μM A23187, 20 mM Tris, pH 7.5. […] SERCA2a-dependent activity was identified as the portion of total hydrolytic activity inhibited by 10 μM cyclopiazonic acid (Seidler N W et al., J Biol Chem. 1989, 264:17816-23).
Dose-response curves were fitted by using a sigmoidal equation and the activity at the maximal velocity (Vmax) and the Kd for Ca^2+ were calculated (Synergy Software KaleidaGraph 3.6). The effect of the compounds in normal guinea-pig preparations was expressed as % decrease of Kd Ca^2+ (implying an increase of affinity for Ca^2+) of a control sample run in the absence of compound (Table 2). […] Data are mean±SD, n=number of experiments, *at least p<0.05.

[3] = tested on: rat ventricular myocytes isolated from STZ rats; test: SR Ca2+ uptake function in ventricular myocytes from STZ rats (loading protocol); format: cell-based; details: 1 μM
Source text: as §1
To test the effects of the compounds in a model of diastolic dysfunction, Sprague Dawley male rats (150-175 g) were made diabetic by a single tail vein injection of streptozotocin (STZ 50 mg/kg, Sigma-Aldrich). STZ was freshly prepared in 0.1 M sodium citrate buffer at pH 4.5. Fasting glycaemia was measured after 1 week and rats with values >300 mg/dl were considered diabetic. Drug effects on SR Ca^2+ uptake function were evaluated in isolated left ventricular myocytes 9 weeks after STZ injection. Myocytes were incubated for at least 30 min in the presence of a specific drug to guarantee its cell membrane permeation. Statistical analysis was performed by a “group comparison” model.
Drug effects on SR Ca^2+ uptake rate were evaluated with a SR “loading protocol” specifically devised to rule out the contribution of the Na/Ca exchanger (NCX) and to assess the uptake rate starting at low levels of SR Ca^2+ loading. Under voltage-clamp conditions, intracellular Ca^2+ concentration was dynamically measured by epifluorescence (Fluo4-AM). Membrane current, whose time-dependent component mainly reflected ICaL, was simultaneously recorded. The SR loading protocol consisted in emptying the SR by a brief caffeine pulse and then progressively refilling it by voltage steps activating Ca^2+ influx through the sarcolemmal Ca^2+ channel (ICaL). NCX was blocked by omission of Na^+ from intracellular and extracellular solutions. The procedure is in agreement with published methods, with minor modifications (Rocchetti M et al., J Pharmacol Exper Therap 2005, 313:207-215).
Drug effects on SR Ca^2+ uptake were analyzed by considering multiple parameters: the rate at which 1) Ca^2+ transient (CaT) amplitude and 2) the Ca^2+ induced Ca^2+ release (CICR) gain increased during the loading protocol, reflecting the rate at which the SR refilled and the gain of the system, 3) the time constant of cytosolic Ca^2+ decay (τdecay) within each pulse, reflecting net Ca^2+ transport rate (by SERCA2a) across the SR membrane (a decrease in τdecay corresponds to enhanced SR Ca^2+ uptake).

[4] = Acute toxicity in the mouse; details: Albino Swiss CD-1, in vivo
Experimental: The acute toxicity of the tested compound CVie214-salt and CVie216-salt have been determined in the mouse (Albino Swiss CD-1, body weight 30 g). Compounds have been orally administered or intravenously injected at increasing doses to identify the dose causing 50% mortality. Mortality occurred within 30 min after the administration and survival after 24 h.
As comparison, the acute toxicity for the reference compounds Digoxin and Istaroxime were also included. Digoxin refers to literature data (www.lookchem.com, Reference for Digoxin intravenous: Afifi A M, Ammar E M. Pharmacological Research Communications. Vol. 6, Pg. 417, 1974; Reference for Digoxin oral: Archives Internationales de Pharmacodynamie et de Therapie. Vol. 153, Pg. 436, 1965) (Table 3).

in vivo = test: in vivo; parameters: dose or concentration left out as unconfirmed; details: rat
[5] = after 15 min IV infusion 0.2 mg/kg/min
[6] = after 30 min IV infusion 0.2 mg/kg/min

Structure (SMILES): C[C@]12CC[C@H](CCCC(=O)O)CC1[C@@H](O)CC1C2CC[C@]2(C)C(=O)CCC12 (stereo partly drawn) [CVie214, 4-(6alpha-hydroxy-17-oxoandrostane-3-yl) butyric acid]
- action potential duration (APD90) ([1]; 0.5-1-2-4 Hz): did not affect
- diastolic membrane potential (Ediast) ([1]; 0.5-1-2-4 Hz): did not affect
- maximum depolarization velocity (dV/dtmax) ([1]; 0.5-1-2-4 Hz): did not affect
- rate-dependency of each AP parameter ([1]; 0.5-1-2-4 Hz): did not affect
- slope of linear fit STV vs mean APD90 ([1]; all pacing rates pooled): 0.014
- short term APD variability (STV) and its dependency on mean APD ([1]; pacing rates 0.5-1-2 and 4 Hz): not significantly affected
- HR heart rate (STZ diabetic rats; [5]): modestly, but significantly, increased
- s′ TDI contraction velocity (STZ diabetic rats; [5]): modestly, but significantly, increased
- IC50 [2]: > 100000 nM
- Kd (SERCA2a; read-out: Kd Ca2+ (nM) mean ± SD, compound 1 nM): 474 ± 40.4 nM
- Kd (SERCA2a; read-out: Kd Ca2+ (nM) mean ± SD, compound 10 nM): 467 ± 62.4 nM
- Kd (SERCA2a; read-out: Kd Ca2+ (nM) mean ± SD, compound 100 nM): 427 ± 48.9 nM
- Kd (SERCA2a; read-out: Kd Ca2+ (nM) mean ± SD, compound 200 nM): 409 ± 60.1 nM
- Ca2+ transient (CaT) amplitude / rate of CaT increment during SR reloading [3]: failed to significantly increase
- Ca2+ uptake by the SR [3]: significantly increased
- Ca2+-induced Ca2+ release (CICR) gain [3]: affected by the drug as expected from SERCA2a enhancement
- time constant of Ca2+ decay (τdecay) [3]: close to significance; also recorded: affected by the drug as expected from SERCA2a enhancement

Structure (SMILES): C[C@]12CC[C@H](CCCC(=O)O)CC1[C@@H](O)CC1C2CC[C@]2(C)C(=O)CCC12 (stereo partly drawn) [CVie214-salt, 4-(6alpha-hydroxy-17-oxoandrostane-3-yl) butyric acid]
- diastolic function (in words) (STZ diabetic rats; IV infusion): ameliorated diastolic function
- overall cardiac function, SV and CO (in words) (STZ diabetic rats; IV infusion): improvement
- A late filling velocity of mitral inflow (STZ diabetic rats; [5]): 0.65 ± 0.13 m/s
- CO cardiac output (STZ diabetic rats; [5]): 177.23 ± 40.64 mL/min
- DT deceleration time of E wave (STZ diabetic rats; [5]): 42.5 ± 10.19 ms
- DT/E mitral deceleration index (STZ diabetic rats; [5]): 49.52 ± 12.41 s2/m
- E early filling velocity of mitral inflow (STZ diabetic rats; [5]): 0.88 ± 0.15 m/s
- E/A index of LV function (STZ diabetic rats; [5]): 1.36 ± 0.17
- E/DT deceleration slope (STZ diabetic rats; [5]): 21.49 ± 5.8 m/s2
- E/e′ index of LV filling pressure (STZ diabetic rats; [5]): 37.49 ± 4.34
- FS fractional shortening (STZ diabetic rats; [5]): 58.1 ± 8.59%
- HR heart rate (STZ diabetic rats; [5]): 268 ± 54 beat/min
- SV stroke volume (STZ diabetic rats; [5]): 0.68 ± 0.19 ml/beat
- a′ TDI late relaxation velocity (STZ diabetic rats; [5]): 29.13 ± 6.56 cm/s
- e′ TDI early relaxation velocity (STZ diabetic rats; [5]): 23.33 ± 2.62 cm/s
- s′ TDI contraction velocity (STZ diabetic rats; [5]): 22.45 ± 3.12 cm/s
- A late filling velocity of mitral inflow (STZ diabetic rats; [6]): 0.69 ± 0.11 m/s
- CO cardiac output (STZ diabetic rats; [6]): 175.15 ± 33.96 mL/min
- DT deceleration time of E wave (STZ diabetic rats; [6]): 42.15 ± 9.88 ms
- DT/E mitral deceleration index (STZ diabetic rats; [6]): 48.51 ± 16.44 s2/m
- E early filling velocity of mitral inflow (STZ diabetic rats; [6]): 0.91 ± 0.16 m/s
- E/A index of LV function (STZ diabetic rats; [6]): 1.34 ± 0.21
- E/DT deceleration slope (STZ diabetic rats; [6]): 23.18 ± 8.37 m/s2
- E/e′ index of LV filling pressure (STZ diabetic rats; [6]): 37.47 ± 4.48
- FS fractional shortening (STZ diabetic rats; [6]): 60.69 ± 8.36%
- HR heart rate (STZ diabetic rats; [6]): 252 ± 49 beat/min
- SV stroke volume (STZ diabetic rats; [6]): 0.71 ± 0.16 ml/beat
- a′ TDI late relaxation velocity (STZ diabetic rats; [6]): 28.94 ± 5.32 cm/s
- e′ TDI early relaxation velocity (STZ diabetic rats; [6]): 24.24 ± 2.34 cm/s
- s′ TDI contraction velocity (STZ diabetic rats; [6]): 21.82 ± 2.81 cm/s
- LD50 at 24 h ([4]; iv): 300 mg/kg
- LD50 at 24 h ([4]; oral, os): > 800 mg/kg
- bioavailability (in vivo): 41.5%

Structure (SMILES): C[C@]12CC/C(=N/OCCN)C[C@@H]1C(=O)C[C@@H]1[C@@H]2CC[C@]2(C)C(=O)CC[C@@H]12 [Istaroxime, (3Z,5a)-3-[(2-aminoethoxy)imino]androstane-6,17-dione, reference compound]
- LD50 at 24 h ([4]; iv): 29 to 32 mg/kg
- LD50 at 24 h ([4]; oral, os): 200 mg/kg
- IC50 [2]: 140 nM
- Kd (SERCA2a; compound 1 nM, read-out: Kd Ca2+ (nM) mean ± SD): 524 ± 57.4 nM
- Kd (SERCA2a; compound 10 nM, read-out: Kd Ca2+ (nM) mean ± SD): 464 ± 52.4 nM
- Kd (SERCA2a; compound 100 nM, read-out: Kd Ca2+ (nM) mean ± SD): 462 ± 59.1 nM
